Usually IC50 stands for the midpoint of a concentration-inhibition curve. Low values mean higher potency, high ones lower potency.

This is an account of results in patent publication US10513694B2, “Thienopyrrole compounds and uses thereof” (PROMEGA CORPORATION, priority 2015, dated 2019).

Structures are written as SMILES.

One series relates to HEK293 cells. As to the kind of experiment: Cell viability and toxicity (CellTiter-Glo). It counts as cell-based. The settings on record: at concentrations greater than 2 μg/mL. As to the method:
HEK293 cells were plated at 20 k cells/well and exposed to vehicle (DMSO), digitonin (positive control for cell death), or JRW-0344 for 10 min/30 min/120 min/240 min/or 18 hrs. CellTiter-Glo (Promega Corp.) was added, and luminescence measured.
For orientation: ATP-based viability assays read luminescence as a measure of living cells.

For a further series, the target named is NANOLUC® enzyme (Oplophorus gracilirostris, UniProt Q9GV45, A31E/A60N/A81I/F95D/I117V/K70R/L54V/L99Q/M102K/N193R/P142E/Q151K/Q38R/Q45L/V71I/Y165I). As to the kind of experiment: Inhibitor IC50 determination (NANOLUC enzyme, furimazine). It is filed as biochemical. To be noted: IC50 (uM), 0.4 ng/ml NANOLUC enzyme, final furimazine 10 uM (at Km).
Series [1] deals with Beta-2 Adrenergic Receptor-Nluc (B2AR-Nluc) fusion protein. The series is described as follows: Cell permeability, B2AR-Nluc in HEK293 or HeLa cells -/+ digitonin. It is filed as cell-based. How it is done:
HEK293 or HeLa cells were transiently transfected with Beta-2 Adrenergic Receptor-Nluc (B2AR-Nluc) fusion protein to anchor and orient Nluc cytosolically. 24 hrs post-transfection, cells were treated with −/+50 μg/mL digitonin to emulate a live and lytic scenario, respectively. Then, intact cells and permeabilized cells were exposed to a compound response curve of thienopyrrole compound up to 2 hrs. 10 μM furimazine (Promega Corp.) was added, and luminescence was measured. If a thienopyrrole compound (inhibitor) was permeable, the dose-response curves for both live and permeabilized cells overlapped. However, if a thienopyrrole compound was impermeable, the EC50 was right-shifted in the live cells relative to the permeabilized cells.

In series [2] the test system is Nluc-HALOTAG labeled with NANOBRET 618 ligand. The series is described as follows: Inhibition of extracellular BRET. It counts as cell-based. The settings on record: HEK293 Nluc-HDAC6; 10 ng/mL extracellular Nluc-HALOTAG/NANOBRET 618; 2 hrs. As to the method:
HEK293 were transiently transfected with an Nluc-HDAC6 fusion protein to orient Nluc-HDAC6 inside the cell. 24 hrs post-transfection, cells were treated 10 ng/mL purified Nluc-HALOTAG labeled with NANOBRET 618 ligand to simulate spurious extracellular BRET. Cells were then exposed to a compound response curve of the thienopyrrole compounds, JRW-0013, JRW-0051, JRW-0147, and JRW-0187, for 2 hrs. 10 μM furimazine was then added, and BRET ratio 610/450 nm was measured.
In general terms: BRET reads energy transfer from a luciferase to a nearby fluorophore.

Series [3] addresses T1, purified Nluc (extracellular); Nluc-HALOTAG fusion protein (intracellular) (Oplophorus gracilirostris, UniProt Q9GV45, A31E/A60N/A81I/F95D/I117V/K70R/L54V/L99Q/M102K/N193R/P142E/Q151K/Q38R/Q45L/V71I/Y165I).
T1 construct: expressed in transfected cells; host or cells: HEK293 (Nluc-HaloTag); purified Nluc added from outside
As to the kind of experiment: Inhibition of extracellular luciferase activity and enhancement of intracellular BRET. To be noted: HEK293 Nluc-HALOTAG + NANOBRET 618; 10 ng/mL extracellular purified Nluc; 2 hrs. It is filed as cell-based. As to the method:
HEK293 were transiently transfected with Nluc-HALOTAG fusion protein to orient Nluc-HALOTAG inside the cell. 24 hrs post-transfection, cells were labeled with NANOBRET 618 ligand to simulate specific intracellular BRET. Cells were then treated 10 ng/mL purified Nluc to simulate spurious extracellular luminescence. Cells were exposed to a compound response curve of the thienopyrrole compounds, JRW-0013, JRW-0051, JRW-0147, and JRW-0187, for 2 hrs. 10 μM furimazine was added, and the BRET ratio 610/450 nm was measured.

The test system of series [4] is B2AR-Nluc or Nluc-B2AR fusion protein. The series is described as follows: Cell permeability with bioluminescent imaging (HeLa, B2AR-Nluc / Nluc-B2AR). It is filed as cell-based. The settings on record: 30 μM compound, 10 μM furimazine. How it is done:
HeLa cells were transiently transfected with Beta-2 Adrenergic Receptor-Nluc (B2AR-Nluc; C-Terminus Nluc) or Nluc-Beta-2 Adrenergic Receptor (Nluc-B2AR; N-terminus Nluc) fusion protein to anchor and orient Nluc intracellularly or extracellularly, respectively. 24 hrs post-transfection, cells were treated with −/+30 μM of a thienopyrrole compound, JRW-0147, JRW-0051, and JRW-0138. 10 μM furimazine was added, and luminescence was detected by imaging on the Olympus LV200.

T1 sequence (Q9GV45 28-196 with tags or gaps with the stated changes limits assumed): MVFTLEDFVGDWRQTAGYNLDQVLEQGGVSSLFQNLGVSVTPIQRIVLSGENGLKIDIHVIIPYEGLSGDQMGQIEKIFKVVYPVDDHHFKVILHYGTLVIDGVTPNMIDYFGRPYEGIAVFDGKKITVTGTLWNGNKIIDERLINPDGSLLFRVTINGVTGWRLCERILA
Chain of NANOLUC® enzyme (Q9GV45 28-196 with tags or gaps with the stated changes limits assumed): as above

As for `C[C@@H]1CC[C@@]2(OC1)O[C@H]1[C@@H](O)[C@H]3[C@@H]4CC[C@H]5C[C@@H](O[C@@H]6O[C@H](CO)[C@H](O[C@@H]7O[C@H](CO)[C@@H](O)[C@H](O[C@@H]8OC[C@@H](O)[C@H](O)[C@H]8O)[C@H]7O[C@@H]7O[C@H](CO)[C@H](O)[C@H](O[C@@H]8O[C@H](CO)[C@@H](O)[C@H](O)[C@H]8O)[C@H]7O)[C@H](O)[C@H]6O)[C@H](O)C[C@]5(C)[C@H]4CC[C@]3(C)[C@H]1[C@@H]2C` [Digitonin, reference compound], the “Cell death (FIG. 18B)” value in the series on HEK293 cells is on record as “almost complete death”.

On to `CCN(C(=O)Cn1c(C(=O)N[C@H]2CC[C@H](C(=O)NCCCC(=O)O)CC2)cc2sccc21)c1cccc(C)c1` [JRW-0051, 4-(trans-4-(4-(2-(ethyl(m-tolyl)amino)-2-oxoethyl)-4H-thieno[3,2-b]pyrrole-5-carboxamido)cyclohexane-1-carboxamido)butanoic acid], for which, at NANOLUC® enzyme, half-maximal inhibition (IC50) required 0.74 µM. Also, the Cell permeability entry in series [1] was “cell-impermeable”. For the same compound, the “BRET ratio 610/450 nm across compound dose-response curve (FIGS. 12B-12E)” value in series [2] is given as “BRET ratio decreased”. Also, the “BRET ratio 610/450 nm across compound dose-response curve (FIGS. 13B-13E)” value in series [3] is recorded as “intracellular BRET ratio was enhanced”. Besides, the “Permeability and inhibition of extracellular / intracellular Nluc by imaging (FIG. 14)” value in series [4] is “impermeable and inhibited extracellular Nluc and enhanced intracellular Nluc”.
